Measured values published in ChEMBL document CHEMBL3593237, “Synthesis and biological evaluation of isoflavone amide derivatives with antihyperlipidemic and preadipocyte antiproliferative activities” (Bioorg Med Chem, 2015).
Activity calls are given as the source filed them. The calls are words filed in the database; no cut-off is given here.

What was measured:
[1] = biological target: T1, Cholesteryl ester transfer protein (Oryctolagus cuniculus) (UniProt P22687); experiment: Inhibition of CETP in rabbit serum at 100 uM incubated for 1 hr using NBD-labeled cholesterol in HDL and LDL by fluorescence based assay
T1 sequence (whole entry): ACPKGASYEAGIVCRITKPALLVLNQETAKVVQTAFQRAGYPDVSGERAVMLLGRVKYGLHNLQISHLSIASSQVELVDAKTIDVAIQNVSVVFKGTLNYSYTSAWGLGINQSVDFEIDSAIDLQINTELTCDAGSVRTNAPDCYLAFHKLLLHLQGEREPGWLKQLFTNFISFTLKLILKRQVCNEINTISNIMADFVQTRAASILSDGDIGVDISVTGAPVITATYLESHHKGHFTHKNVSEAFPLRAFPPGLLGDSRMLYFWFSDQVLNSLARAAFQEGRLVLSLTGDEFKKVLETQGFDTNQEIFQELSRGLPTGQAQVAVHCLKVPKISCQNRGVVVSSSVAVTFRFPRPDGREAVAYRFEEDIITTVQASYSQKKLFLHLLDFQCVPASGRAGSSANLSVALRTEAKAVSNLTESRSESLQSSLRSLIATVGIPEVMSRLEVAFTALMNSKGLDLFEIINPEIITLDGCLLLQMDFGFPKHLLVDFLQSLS

3T3-L1 = experiment: Inhibition of cell proliferation of mouse 3T3L1 cells at 100 uM incubated for 48 hrs by MTT assay; format: functional, cell-based
[2] = biological target: T2, Cholesteryl ester transfer protein (Oryctolagus cuniculus, UniProt P22687); experiment: Inhibition of CETP in rabbit serum incubated for 1 hr using NBD-labeled cholesterol in HDL and LDL by fluorescence based assay
T2 sequence (P22687 whole entry): T1 sequence (whole entry)

HepG2 = experiment: Toxicity against human HepG2 cells assessed as inhibition of cell proliferation at 100 uM incubated for 48 hrs by MTT assay; format: cell-based; conditions: hepg2, 48 h
Syrian golden hamster [3] = experiment: Antihyperlipidemic activity in Syrian golden hamster model of high lipid diet-induced dyslipidemia model assessed as reduction in LDL-C at 50 mg/kg/day, po for 28 days; format: functional, Mesocricetus auratus; design: scale not given: the % may be the effect or the level left
Syrian golden hamster [4] = experiment: Antihyperlipidemic activity in Syrian golden hamster model of high lipid diet-induced dyslipidemia model assessed as increase in HDL-C at 50 mg/kg/day, po for 28 days; format: functional, Mesocricetus auratus

| SMILES | inhibition [1] | IC50 [2] [µM] | inhibition (3T3-L1) | Activity (HepG2) | Activity (Syrian golden hamster [3]) [%] | Activity (Syrian golden hamster [4]) [%] |
| --- | --- | --- | --- | --- | --- | --- |
| COc1cc(F)c(C(C)C)cc1-c1ccc(C(F)(F)F)cc1CN1C(=O)O[C@H](c2cc(C(F)(F)F)cc(C(F)(F)F)c2)[C@@H]1C | Active |  |  |  |  |  |
| CC(=O)Oc1ccc2c(=O)c(-c3ccc(NC(=O)COc4ccc(C)cc4)cc3)coc2c1 | inactive |  | Active |  |  |  |
| O=C(COc1cccc2ccccc12)Nc1ccc(-c2coc3cc(O)ccc3c2=O)cc1 | Active |  | inactive |  |  |  |
| COc1ccccc1OCC(=O)Nc1ccc(-c2coc3cc(OC(C)=O)ccc3c2=O)cc1 | inactive |  | Active |  |  |  |
| Cc1cccc(OCC(=O)Nc2ccc(-c3coc4cc(O)ccc4c3=O)cc2)c1 | Active |  | inactive |  |  |  |
| Cc1ccc(OCC(=O)Nc2ccc(-c3coc4cc(O)ccc4c3=O)cc2)cc1 | Active |  | inactive |  |  |  |
| CC(=O)Oc1ccc2c(=O)c(-c3ccc(NC(=O)COc4ccccc4C)cc3)coc2c1 | Active | 8.42 | Active |  |  |  |
| CCCCCCCC/C=C\CCCCCCCC(=O)Oc1ccc2c(=O)c(-c3ccc(OC)cc3)coc2c1 |  |  | Active |  |  |  |
| Cc1ccccc1OCC(=O)Nc1ccc(-c2coc3cc(O)ccc3c2=O)cc1 | Active |  | inactive |  |  |  |

More lines, main results first:

| inhibition [1] | IC50 [2] [µM] | SMILES | inhibition (3T3-L1) | Activity (HepG2) | Activity (Syrian golden hamster [3]) [%] | Activity (Syrian golden hamster [4]) [%] |
| --- | --- | --- | --- | --- | --- | --- |
| Active |  | CC(=O)Oc1ccc2c(=O)c(-c3ccc(NC(=O)COc4cccc5ccccc45)cc3)coc2c1 | Active |  |  |  |
| inactive |  | CC(=O)Oc1ccc2c(=O)c(-c3ccc(NC(=O)COc4cccc(C)c4)cc3)coc2c1 | Active |  |  |  |
| Active | 1.52 | CC(=O)Oc1ccc2c(=O)c(-c3ccc(NC(=O)COc4ccccc4)cc3)coc2c1 | Active | Non-toxic | 44.6 | 66 |
| Active |  | O=C(COc1ccccc1)Nc1ccc(-c2coc3cc(O)ccc3c2=O)cc1 | inactive |  |  |  |
| inactive |  | COc1ccccc1OCC(=O)Nc1ccc(-c2coc3cc(O)ccc3c2=O)cc1 | inactive |  |  |  |
